# Reference: US7652014B2, “Substituted 6-cyclohexylalkyl substituted 2-quinolinones and 2-quinoxalinones as poly(ADP-ribose) polymerase inhibitors” (Janssen Pharmaceutica, priority 2003, dated 2010)
# What was measured:
# PARP-1 enzyme [1] = biological target: T1, PARP-1 enzyme (Homo sapiens, UniProt P09874); assay: In vitro Scintillation Proximity Assay (SPA) for PARP-1 inhibitory activity; assay type: biochemical; details: nicked DNA activated PARP-1, [3H]-NAD+, biotinylated histones; read-out: In vitro SPA pIC50 (converted)
# T1 construct: made in house
# T1 sequence (P09874 whole entry): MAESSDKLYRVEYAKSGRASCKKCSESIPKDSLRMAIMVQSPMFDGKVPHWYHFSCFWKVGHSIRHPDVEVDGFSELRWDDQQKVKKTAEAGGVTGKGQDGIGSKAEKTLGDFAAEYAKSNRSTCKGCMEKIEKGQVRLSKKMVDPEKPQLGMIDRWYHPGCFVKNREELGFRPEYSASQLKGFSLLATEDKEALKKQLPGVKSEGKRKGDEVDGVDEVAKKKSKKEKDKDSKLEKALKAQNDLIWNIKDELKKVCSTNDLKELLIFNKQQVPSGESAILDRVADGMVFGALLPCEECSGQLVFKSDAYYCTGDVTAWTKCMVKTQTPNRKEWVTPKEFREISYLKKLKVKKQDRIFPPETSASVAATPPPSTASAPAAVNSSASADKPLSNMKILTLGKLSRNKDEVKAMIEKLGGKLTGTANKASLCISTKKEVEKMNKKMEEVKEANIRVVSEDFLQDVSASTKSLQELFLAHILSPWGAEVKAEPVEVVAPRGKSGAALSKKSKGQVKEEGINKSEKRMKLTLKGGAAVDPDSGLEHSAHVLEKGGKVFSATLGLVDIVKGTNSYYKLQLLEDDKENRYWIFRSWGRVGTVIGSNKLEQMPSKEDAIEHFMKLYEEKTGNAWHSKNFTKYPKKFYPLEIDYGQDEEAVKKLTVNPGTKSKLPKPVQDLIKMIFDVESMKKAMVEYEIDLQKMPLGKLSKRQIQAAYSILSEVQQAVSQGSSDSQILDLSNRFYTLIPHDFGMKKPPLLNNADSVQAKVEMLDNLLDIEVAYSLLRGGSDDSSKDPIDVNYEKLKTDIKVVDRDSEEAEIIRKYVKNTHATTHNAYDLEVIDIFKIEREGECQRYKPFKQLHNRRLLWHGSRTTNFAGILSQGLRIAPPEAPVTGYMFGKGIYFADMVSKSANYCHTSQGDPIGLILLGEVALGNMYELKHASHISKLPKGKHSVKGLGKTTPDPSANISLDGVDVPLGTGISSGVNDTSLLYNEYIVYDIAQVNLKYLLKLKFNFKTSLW
# Method: Pharmacological Example In Vitro Scintillation Proximity Assay (SPA) for PARP-1 Inhibitory Activity
# Compounds of the present invention were tested in an in vitro assay based on SPA technology (proprietary to Amersham Pharmacia Biotech).
# In principle, the assay relies upon the well established SPA technology for the detection of poly(ADP-ribosyl)ation of biotinylated target proteins, i.e histones. This ribosylation is induced using nicked DNA activated PARP-1 enzyme and [^3H]-nicotinamide adenine dinucleotide ([^3H]-NAD^+) as ADP-ribosyl donor.
# As inducer of PARP-1 enzyme activity, nicked DNA was prepared. For this, 25 mg of DNA (supplier: Sigma) was dissolved in 25 ml DNAse buffer (10 mM Tris-HCl, pH 7.4; 0.5 mg/ml Bovine Serum Albumine (BSA); 5 mM MgCl2.6H2O and 1 mM KCl) to which 50 μl DNAse solution (1 mg/ml in 0.15 M NaCl) was added. After an incubation of 90 min. at 37° C., the reaction was terminated by adding 1.45 g NaCl, followed by a further incubation at 58° C. for 15 min. The reaction mixture was cooled on ice and dialysed at 4° C. for respectively 1.5 and 2 hours against 1.5 l of 0.2 M KCl, and twice against 1.5 l of 0.01 M KCl for 1.5 and 2 h respectively. The mixture was aliquoted and stored at −20° C. Histones (1 mg/ml, type II-A, supplier: Sigma) were biotinylated using the biotinylation kit of Amersham and stored aliquoted at −20° C. A stock solution of 100 mg/ml SPA poly(vinyl toluene) (PVT) beads (supplier: Amersham) was made in PBS. A stock solution of [^3H]-NAD^+ was made by adding 120 μl of [^3H]-NAD^+ (0.1 mCi/ml, supplier: NEN) to 6 ml incubation buffer (50 mM Tris/HCl, pH 8; 0.2 mM DTT; 4 mM MgCl2). A solution of 4 mM NAD^+ (supplier: Roche) was made in incubation buffer (from a 100 mM stock solution in water stored at −20° C.). The PARP-1 enzyme was produced using art known techniques, i.e. cloning and expression of the protein starting from human liver cDNA. Information concerning the used protein sequence of the PARP-1 enzyme including literature references can be found in the Swiss-Prot database under primary accession number P09874. Biotinylated histones and PVT-SPA beads were mixed and pre-incubated for 30 min. at room temperature. PARP-1 enzyme (concentration was lot dependent) was mixed with the nicked DNA and the mixture was pre-incubated for 30 min. at 4° C. Equal parts of this histones/PVT-SPA beads solution and PARP-1 enzyme/DNA solution were mixed and 75 μl of this mixture together with 1 μl of compound in DMSO and 25 μl of [^3H]-NAD^+ was added per well into a 96-well microtiterplate. The final concentrations in the incubation mixture were 2 μg/ml for the biotinylated histones, 2 mg/ml for the PVT-SPA beads, 2 μg/ml for the nicked DNA and between 5-10 μg/ml for the PARP-1 enzyme. After incubation of the mixture for 15 min. at room temperature, the reaction was terminated by adding 100 μl of 4 mM NAD^+ in incubation buffer (final concentration 2 mM) and plates were mixed.
# The beads were allowed to sediment for at least 15 min. and plates transferred to a TopCountNXT™ (Packard) for scintillation counting, values were expressed as counts per minute (cpm). For each experiment, controls (containing PARP-1 enzyme and DMSO without compound), a blank incubation (containing DMSO but no PARP-1 enzyme or compound) and samples (containing PARP-1 enzyme and compound dissolved in DMSO) were run in parallel. All compounds tested were dissolved and eventually further diluted in DMSO. […] In each test, the blank value was subtracted from both the control and the sample values. The control sample represented maximal PARP-1 enzyme activity. For each sample, the amount of cpm was expressed as a percentage of the mean cpm value of the controls. When appropriate, IC50-values (concentration of the drug, needed to reduce the PARP-1 enzyme activity to 50% of the control) were computed using linear interpolation between the experimental points just above and below the 50% level. […]
# PARP-1 enzyme [2] = biological target: T1, PARP-1 enzyme; assay: In vitro filtration assay for PARP-1 inhibitory activity; assay type: biochemical; details: nicked DNA activated PARP-1, [32P]-NAD, histones; read-out: In vitro filtration assay pIC50 (converted)
# Method: In Vitro Filtration Assay for PARP-1 Inhibitory Activity
# Compounds of the present invention were tested in an in vitro filtration assay assessing PARP-1 activity (triggered in the presence of nicked DNA) by means of its histone poly (ADP-ribosyl)ation activity using [^32P]-NAD as ADP-ribosyl donor. The radioactive ribosylated histones were precipitated by trichloroacetic acid (TCA) in 96-well filterplates and the incorporated [^32P] measured using a scintillation counter A mixture of histones (stock solution: 5 mg/ml in H2O), NAD^+ (stock solution: 100 mM in H2O), and [^32P]-NAD^+ in incubation buffer (50 mM Tris/HCl, pH 8; 0.2 mM DTT; 4 mM MgCl2) was made. A mixture of the PARP-1 enzyme (5-10 μg/ml) and nicked DNA was also made. The nicked DNA was prepared as described in the in vitro SPA for PARP-1 inhibitory activity. Seventy-five μl of the PARP-1 enzyme/DNA mixture together with 1 μl of compound in DMSO and 25 μl of histones-NAD^+/[^32P]-NAD^+ mixture was added per well of a 96-well filterplate (0.45 μm, supplier Millipore). The final concentrations in the incubation mixture were 2 μg/ml for the histones, 0.1 mM for the NAD^+, 200 μM (0.5 μC) for the [^32P]-NAD^+ and 2 μg/ml for the nicked DNA. Plates were incubated for 15 min. at room temperature and the reaction was terminated by the addition of 10 μl ice cold 100% TCA followed by the addition of 10 μl ice-cold BSA solution (1% in H2O). The protein fraction was allowed to precipitate for 10 min. at 4° C. and plates were vacuum filtered. The plates were subsequently washed with, for each well, 1 ml of 10% ice cold TCA, 1 ml of 5% ice cold TCA and 1 ml of 5% TCA at room temperature. Finally 100 μl of scintillation solution (Microscint 40, Packard) was added to each well and the plates were transferred to a TopCountNXT™ (supplier: Packard) for scintillation counting and values were expressed as counts per minute (cpm). For each experiment, controls (containing PARP-1 enzyme and DMSO without compound), a blank incubation (containing DMSO but no PARP-1 enzyme or compound) and samples (containing PARP-1 enzyme and compound dissolved in DMSO) were run in parallel. All compounds tested were dissolved and eventually further diluted in DMSO. In first instance, compounds were tested at a concentration of 10^−5M. […] In each test, the blank value was subtracted from both the control and the sample values. The control sample represented maximal PARP-1 enzyme activity. For each sample, the amount of cpm was expressed as a percentage of the mean cpm value of the controls. When appropriate, IC50-values (concentration of the drug, needed to reduce the PARP-1 enzyme activity to 50% of the control) were computed using linear interpolation between the experimental points just above and below the 50% level. Herein the effects of test compounds are expressed as pIC50 (the negative log value of the IC50-value). As a reference compound, 4-amino-1,8-naphthalimide was included to validate the filtration assay.
Structure (SMILES),melting point,IC50 (PARP-1 enzyme [1]),IC50 (PARP-1 enzyme [2])
CCc1cc2cc(C(C3CCCCC3)N3CCC4(CC3)CO4)ccc2[nH]c1=O (stereo not drawn) [Co. No. 4],200 °C,300 nM,1520 nM
CCc1cc2cc(C(C3CCCCC3)N3CCC(NCc4cccnc4)CC3)ccc2[nH]c1=O (stereo not drawn) [Co. No. 31],,863 nM,8260 nM
CCc1cc2cc([C@@H](OCCN(C)C)C3CCCCC3)ccc2[nH]c1=O [Co. No. 9],115 °C,614 nM,4380 nM
CCc1cc2cc(C(C3CCCCCC3)N3CCC(=O)CC3)ccc2[nH]c1=O (stereo not drawn) [Co. No. 2],218 °C,232 nM,568 nM
CCc1cc2cc(C(O)CN3CCN(C)CC3)ccc2[nH]c1=O (stereo not drawn) [Co. No. 14],,388 nM,1840 nM
CCc1cc2cc(C(OCCN(C)C)C3CCCCC3)ccc2[nH]c1=O (stereo not drawn) [Co. No. 8],122 °C,873 nM,6730 nM
CCc1cc2cc(C(CCN3CCN(C)CC3)C3CCCCC3)ccc2[nH]c1=O (stereo not drawn) [Co. No. 5],181 °C,507 nM,5060 nM
CCc1cc2cc(CN3CCN(Cc4ccccc4)CC3)ccc2[nH]c1=O [Co. No. 7],194 °C,94.6 nM,
CCc1cc2cc(C(c3ccsc3)N3CCC(=O)CC3)ccc2[nH]c1=O (stereo not drawn) [Co. No. 23],,232 nM,1260 nM
CCCCC(c1ccc2[nH]c(=O)c(CC)cc2c1)N1CCC(NCCOC)CC1 (stereo not drawn) [Co. No. 33],,832 nM,4210 nM
CCc1cc2cc([C@@H](C3CCCCC3)N3CCN(CCOC)CC3)ccc2[nH]c1=O [Co. No. 30],,1280 nM,9180 nM
CCc1cc2cc([C@@H](NCCN(C)C)C3CCCCC3)ccc2[nH]c1=O [Co. No. 29],,841 nM,5420 nM
CCc1cc2cc(C(C3CCCCC3)N3CCC(O)CC3)ccc2[nH]c1=O (stereo not drawn) [Co. No. 34],,853 nM,2430 nM
CCc1cc2cc(C(O)C3CCCCC3)ccc2[nH]c1=O (stereo not drawn) [Co. No. 28],,288 nM,3150 nM
CCc1cc2cc(C(O)CN3CCOCC3)ccc2[nH]c1=O (stereo not drawn) [Co. No. 15],,288 nM,2540 nM
CCc1cc2cc(C(NCCN(C)C)C3CCCCC3)ccc2[nH]c1=O (stereo not drawn) [Co. No. 25],,1110 nM,6010 nM
CCc1cc2cc(C(=O)CN3CCOCC3)ccc2[nH]c1=O [Co. No. 36],,568 nM,2610 nM
CCc1cc2cc(C(C3CCCCC3)N3CCC(O)(c4cncn4C)CC3)ccc2[nH]c1=O (stereo not drawn) [Co. No. 6],194 °C,508 nM,1350 nM

Structure (SMILES),melting point,IC50 (PARP-1 enzyme [1]),IC50 (PARP-1 enzyme [2])
CCc1cc2cc(C(OCCN(C)C)C3CCCCC3)ccc2[nH]c1=O (stereo not drawn) [Co. No. 10],,> 1000 nM,
CCc1cc2cc(C(C3CC=CCC3)N3CCC(O)CC3)ccc2[nH]c1=O (stereo not drawn) [Co. No. 11],196 °C,184 nM,785 nM
CCc1nc2cc(C(C(C)C)N3CCC(=O)CC3)ccc2[nH]c1=O (stereo not drawn) [Co. No. 19],,757 nM,
CCOC(=O)C1CCN(C(C)Cc2ccc3[nH]c(=O)c(CC)nc3c2)CC1 (stereo not drawn) [Co. No. 3],163 °C,861 nM,
CCc1cc2cc(C(C3CCCCC3)N3CCC(N4CCOCC4)CC3)ccc2[nH]c1=O (stereo not drawn) [Co. No. 35],,640 nM,3400 nM
CCc1cc2cc(C(c3ccsc3)N3CCC(NCCOC)CC3)ccc2[nH]c1=O (stereo not drawn) [Co. No. 32],,196 nM,2830 nM
CCc1cc2cc(C(C(CC)CC)N3CCC(=O)CC3)ccc2[nH]c1=O (stereo not drawn) [Co. No. 17],,383 nM,2560 nM
CCc1cc2cc(C(O)CN3CCCCC3)ccc2[nH]c1=O (stereo not drawn) [Co. No. 1],172 °C,329 nM,349 nM
CCc1cc2cc(C(CC(C)C)N3CCC(=O)CC3)ccc2[nH]c1=O (stereo not drawn) [Co. No. 16],,230 nM,1840 nM
CCc1cc2cc(C(SCCN(C)C)C3CCCCC3)ccc2[nH]c1=O (stereo not drawn) [Co. No. 20],,600 nM,1840 nM
CCc1cc2cc(CCN3CCC(NCCOC)CC3)ccc2[nH]c1=O [Co. No. 37],,853 nM,
CCc1cc2cc(C(C3CCCCC3)N3CCN(C)CC3)ccc2[nH]c1=O (stereo not drawn) [Co. No. 21],,902 nM,
CCc1cc2cc(C(C3CC=CCC3)N3CCC(=O)CC3)ccc2[nH]c1=O (stereo not drawn) [Co. No. 24],,277 nM,1330 nM
CCc1cc2cc(C(NCCOC)C3CCCCC3)ccc2[nH]c1=O (stereo not drawn) [Co. No. 18],,750 nM,2990 nM
CCc1cc2cc(C(c3cccs3)N3CCC(NCCOC)CC3)ccc2[nH]c1=O (stereo not drawn) [Co. No. 12],,188 nM,2270 nM
CCc1nc2cc(C(C(C)C)N3CCC(c4n[nH]c5cc(F)ccc45)CC3)ccc2[nH]c1=O (stereo not drawn) [Co. No. 26],,536 nM,
CCc1cc2cc(C(O)C3CCN(Cc4ccccc4)CC3)ccc2[nH]c1=O (stereo not drawn) [Co. No. 27],,180 nM,2200 nM
CCc1cc2cc(C(c3cccnc3)N3CCC(=O)CC3)ccc2[nH]c1=O (stereo not drawn) [Co. No. 22],,198 nM,1180 nM
